Results as given in publication PMC8831599, “Defining molecular glues with a dual-nanobody cannabidiol sensor” (Nature Communications, 2022).

What was measured:
[1] = molecular target: T1, CA14 (anchor binder nanobody); assay: ITC; […] Å crystal structure of the CA14-CBD-DB21 ternary complex; type: binding
T1 construct: nanobody CA14, tag-free; CA14 alone in ITC

[2] = molecular target: T2, TIR1 (Arabidopsis thaliana, UniProt Q570C0); assay: ITC; BLI and AlphaScreen with IAA7 degron; type: binding
T2 construct: TIR1-ASK1 co-expressed complex; with ASK1
T2 sequence (Q39255 whole entry): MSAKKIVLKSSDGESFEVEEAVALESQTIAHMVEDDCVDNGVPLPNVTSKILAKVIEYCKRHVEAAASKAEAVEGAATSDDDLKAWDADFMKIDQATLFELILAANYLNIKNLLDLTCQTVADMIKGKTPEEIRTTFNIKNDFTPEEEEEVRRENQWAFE
T2 sequence (Q570C0 whole entry): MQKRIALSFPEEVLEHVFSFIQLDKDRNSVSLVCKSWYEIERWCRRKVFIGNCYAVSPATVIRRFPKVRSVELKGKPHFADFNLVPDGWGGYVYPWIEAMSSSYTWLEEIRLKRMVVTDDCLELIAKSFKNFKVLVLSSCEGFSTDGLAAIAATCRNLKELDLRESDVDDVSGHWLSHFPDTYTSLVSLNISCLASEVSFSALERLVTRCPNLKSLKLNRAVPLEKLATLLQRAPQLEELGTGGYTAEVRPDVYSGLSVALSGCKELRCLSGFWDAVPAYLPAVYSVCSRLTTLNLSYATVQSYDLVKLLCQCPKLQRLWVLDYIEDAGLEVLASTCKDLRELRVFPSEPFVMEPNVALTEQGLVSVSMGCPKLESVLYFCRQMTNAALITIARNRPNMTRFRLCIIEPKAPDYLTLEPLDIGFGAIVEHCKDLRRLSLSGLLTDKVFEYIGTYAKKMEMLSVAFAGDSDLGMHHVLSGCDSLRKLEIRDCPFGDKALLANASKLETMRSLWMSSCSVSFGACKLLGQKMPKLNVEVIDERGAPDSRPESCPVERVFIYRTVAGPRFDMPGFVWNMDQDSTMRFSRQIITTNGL

SMILES	Kd [1] [µM]	Kd [2] [µM]
C=C(C)[C@@H]1CCC(C)=C[C@H]1c1c(O)cc(CCCCC)cc1O [CBD, cannabidiol]	2.2	–
O=C(O)Cc1c[nH]c2ccccc12 [auxin]	–	13.4
